Results published in PubChem BioAssay (NCI).
Values joined by “and” are separate entries in the source; they are usually repeats but may differ in a detail not shown here. Equal values may be shown once.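 In this assay, cells in 96-well plates receive the compound at five concentrations for 48 hours. Endpoints are linearly interpolated between the surrounding concentrations. GI50 is the concentration that inhibits growth by half. TGI: total growth inhibition.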

Legend:
Experiment in all cases: NCI-60 cell line screen, 48 h
COLO 205 colon = system: COLO 205 colon
K-562 leukemia = system: K-562 leukemia
MALME-3M melanoma = system: MALME-3M melanoma
MOLT-4 leukemia = system: MOLT-4 leukemia
NCI-H23 lung = system: NCI-H23 lung
OVCAR-8 ovarian = system: OVCAR-8 ovarian
U251 CNS = system: U251 CNS
UACC-62 melanoma = system: UACC-62 melanoma
HCT-116 colon = system: HCT-116 colon
DU-145 prostate = system: DU-145 prostate

SMILES | GI50 (COLO 205 colon) [µM] | TGI (COLO 205 colon) [µM] | GI50 (K-562 leukemia) [µM] | TGI (K-562 leukemia) [µM] | GI50 (MALME-3M melanoma) [µM] | TGI (MALME-3M melanoma) [µM] | GI50 (MOLT-4 leukemia) [µM] | TGI (MOLT-4 leukemia) [µM] | GI50 (NCI-H23 lung) [µM] | TGI (NCI-H23 lung) [µM] | GI50 (OVCAR-8 ovarian) [µM] | TGI (OVCAR-8 ovarian) [µM] | GI50 (U251 CNS) [µM] | TGI (U251 CNS) | GI50 (UACC-62 melanoma) [µM] | TGI (UACC-62 melanoma) [µM] | GI50 (HCT-116 colon) [µM] | TGI (HCT-116 colon) [µM] | TGI (DU-145 prostate) [µM] | GI50 (DU-145 prostate) [µM]
CC[O-].CC[O-].O=C([CH-]C(=O)c1ccccc1)CCCCCCC(=O)[CH-]C(=O)c1ccccc1.[Ti+4] | > 100 | > 100 | > 100 | > 100 | > 100 | > 100 | > 100 | > 100 | > 100 | > 100 | > 100 | > 100 | > 100 | > 100 µM | > 100 | > 100 | – | – | – | –
[Co].[O-]c1cccnc1C=Nc1ccccc1.[OH3+] | > 100 | > 100 | 45.8 | > 100 | > 100 | > 100 | 78.3 | > 100 | > 100 | > 100 | > 100 | > 100 | > 100 | > 100 µM | 86.1 | > 100 | > 100 | > 100 | – | –
CCC[CH2][Sn]1([CH2]CCC)[O]CC[S]1 | 0.969 | 3.29 | 0.15 | 1.28 | 0.299 | 1.39 | 0.37 | 2.4 | 0.398 | 1.82 | 1.19 | 2.68 | 0.564 | 1.64 µM | 0.392 | 1.56 | 1.16 | 2.9 | – | –
O=C1OC(c2ccc(Cl)cc2)=N/C1=C\c1ccccc1 | – | > 100 | – | > 100 | – | – | – | – | – | > 100 | – | > 100 | – | > 100 µM | – | > 100 | – | > 100 | > 100 | –
CO/C=C(\Br)c1ccc2c(c1)OCO2 | – | – | – | > 100 | – | > 100 | – | > 100 | – | > 100 | – | > 100 | – | > 100 µM | – | > 100 | – | > 100 | – | –
COc1c(C)c(OC)c(C(=O)CC(C)C)c(OC)c1C | – | > 100 | – | – | – | > 100 | – | > 100 | – | > 100 | – | > 100 | – | > 100 µM | – | > 100 | – | > 100 | > 100 | –
COc1ccc(C2=NN(C(C)=O)C(c3ccc(Oc4ccnc5cc(Cl)ccc45)c(OC)c3)C2)cc1 (stereo not given) | – | – | – | – | – | – | > 100 | > 100 | 11.9 | > 100 | 3.63 | > 100 | 4.51 | 38.4 µM | 5.35 | > 100 | 2.61 | > 100 | > 100 | > 100
CC(=O)[CH-]C(C)=O.CC(=O)[CH-]C(C)=O.[Cl-].[O]=[V] | 18.2 | 34.5 | – | – | 9.76 | 27.9 | – | – | 14.2 | 34.5 | 46.4 | > 100 | 22.5 | 59 µM | 20 | 59.1 | 19.1 | 48.3 | – | –
O=C(Nc1cccc(C(F)(F)F)c1)c1ccc(NC2=C(Cl)C(=O)N(Cc3ccccc3)C2=O)cc1 | 21.9 | 49.8 | 1.46 | 12.5 | – | – | 1.27 | 10.3 | 4.13 | 13.4 | 38.4 | > 100 | 13.7 | 27.1 µM | 12.9 | 25.5 | 2.81 | 9.22 | 12.3 | 3.38
Cc1nc2ccccc2c(/C=C/c2ccccc2)c1C(=O)/C=C/c1ccc(C(F)(F)F)cc1 | 2.13 | 5.4 | 0.775 | > 100 | 1.71 | 3.18 | 0.623 | > 100 | 1.25 | 3.11 | 1.78 | 7.98 | 1.4 | 2.95 µM | 1.48 | 2.93 | 0.226 | 1.16 | – | –
COc1ccc(-c2oc3c(OC)c(OC)c(OC)c(O)c3c(=O)c2OC)cc1O | – | 23.5 | – | 13.5 | – | – | – | 12.7 | < 0.01 | – | < 0.01 | > 100 | < 0.01 | 0.898 µM and 0.23 µM | < 0.01 | 19.8 | – | – | – | –
C/C(=C\C(C[C@](C)(O)C(O)CCC#C[Si](C)(C)C)S(=O)(=O)c1ccccc1)CC/C=C/CO[Si](C)(C)C(C)(C)C (stereo not given in full) | – | – | – | 29 | – | 40.4 | – | 23.1 | – | 41.9 | – | 33.6 | – | 26.5 µM | – | 33.9 | – | 26.6 | – | –
O=C(CC1(O)C(=O)Nc2ccccc21)c1ccc(Cl)cc1Cl (stereo not given) | – | > 100 | – | > 100 | – | > 100 | – | > 100 | – | > 100 | – | > 100 | – | – | – | > 100 | – | > 100 | – | –
COc1ccc2c(c1)C(=O)c1c-2c(N2CCN(C(=O)CCNCCNCCN)CC2)nc2ccccc12 | 2.54 | 6.34 | 3.33 | 9.63 | 2.78 | 6.9 | 1 | 2.18 | – | – | 19.9 | 72.2 | – | – | 22.3 | 55.3 | 1.85 | 3.7 | – | –
O=C(c1ccccc1)C1OC1C(=O)c1ccccc1 (stereo not given) | 4.94 | 15.4 | – | – | 3.24 | 66 | – | – | 2.33 | 10.8 | 4.02 | > 100 | 7.58 | 37.1 µM | 2.91 | 15.9 | 2.09 | 11.4 | 4.28 | 1.32
N#CC1(N2CCCC2)CCC2(CC1)OCCO2 | – | > 10 | – | > 100 | – | > 100 | – | > 100 | – | > 100 | – | > 100 | – | > 100 µM | – | > 100 | – | > 100 | – | –
CN(C)CCN(C)C(=O)c1cccc2cccc(C(=O)O)c12 | – | > 100 | – | > 100 | – | > 100 | – | > 100 | – | > 100 | – | > 100 | – | > 100 µM | – | > 100 | – | > 100 | – | –
